Data as given in patent US20260102501A1, “ANTI-CANCER NUCLEAR HORMONE RECEPTOR-TARGETING COMPOUNDS” (Nuvation Bio Inc., priority 2022, published 2026).
Changes are numbered by the printed parent chain. Like-named read-outs stand apart in the source and are kept apart here.

How the values were obtained:
[1] = system: 22Rv1 cells; experiment: Cell viability assay (CellTiterGlo); conditions: Homo sapiens, 22Rv1, 144 h, read-out: 22RV1 (IC50, nM)
[2] = system: LNCap cells; experiment: Cell viability assay (CellTiterGlo); assay type: cell-based; conditions: Homo sapiens, 144 h
[3] = system: IEC6 cells; experiment: Cell viability assay (CellTiterGlo); conditions: Rattus norvegicus, IEC-6, 144 h, read-out: IEC-6 (IC50, nM)
Method: Cell viability assay: LNCap, 22Rv1, MCF7, MDAMB361, T47D, and IEC6 cells were seeded at a density of 500-2000 cells/well in 96 well plates, and a ‘T0’ (timepoint 0) was included along with the assay plate. The plates were then incubated at 37° C., 5% CO2 in a cell culture incubator overnight. On the next day, the ‘T0’ plate was assayed using CellTiterGlo (Promega, Inc) according to the manufacturer's instructions. The appropriate compounds were diluted in DMSO and added to the assay plate (final DMSO concentration of 0.1-0.2%) on the next day. The assay plates were incubated for 6 days at 37° C., 5% CO2. After the incubation period, the plates were assayed using CellTiterGlo (Promega, Inc) according to the manufacturer's instructions and luminescence was read on the En Vision plate reader. […] GraphPadPrism was used to analyze the data and determine GI50/IC50 values.

[4] = target: T1, AR (cytosol from LnCaP cells) (Homo sapiens, UniProt P10275, T878A); experiment: AR binding assay (3H-R1881 displacement)
T1 sequence (P10275 1-920 T878A): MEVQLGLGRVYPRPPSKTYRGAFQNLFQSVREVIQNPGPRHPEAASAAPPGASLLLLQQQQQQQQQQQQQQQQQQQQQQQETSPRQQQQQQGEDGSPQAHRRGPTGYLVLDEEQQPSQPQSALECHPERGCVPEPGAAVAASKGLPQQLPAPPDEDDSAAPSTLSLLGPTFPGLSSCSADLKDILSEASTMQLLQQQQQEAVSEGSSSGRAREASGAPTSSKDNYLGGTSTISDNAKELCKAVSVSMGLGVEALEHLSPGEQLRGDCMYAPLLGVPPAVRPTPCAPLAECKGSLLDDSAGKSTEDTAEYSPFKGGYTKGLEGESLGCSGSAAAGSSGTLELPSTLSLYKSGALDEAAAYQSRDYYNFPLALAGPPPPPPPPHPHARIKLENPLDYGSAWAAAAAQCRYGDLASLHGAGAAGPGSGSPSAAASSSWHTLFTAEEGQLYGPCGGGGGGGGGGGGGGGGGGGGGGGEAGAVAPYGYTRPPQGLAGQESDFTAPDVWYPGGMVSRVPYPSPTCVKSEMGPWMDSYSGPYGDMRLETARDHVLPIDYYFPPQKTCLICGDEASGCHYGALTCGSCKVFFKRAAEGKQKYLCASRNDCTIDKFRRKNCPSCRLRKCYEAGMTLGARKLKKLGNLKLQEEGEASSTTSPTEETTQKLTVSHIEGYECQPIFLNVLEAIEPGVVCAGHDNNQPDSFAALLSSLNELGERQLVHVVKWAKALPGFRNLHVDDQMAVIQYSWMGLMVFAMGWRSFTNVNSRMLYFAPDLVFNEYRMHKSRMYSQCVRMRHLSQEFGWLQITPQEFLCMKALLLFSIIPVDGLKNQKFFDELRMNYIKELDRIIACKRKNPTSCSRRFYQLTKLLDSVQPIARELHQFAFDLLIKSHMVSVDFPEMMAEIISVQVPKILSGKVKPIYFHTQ
Method: The plate was then centrifuged at 3000 rpm for 30 minutes at 4° C.

[5] = target: T2, full-length androgen receptor (HEK293 cells stably expressing) (Homo sapiens, UniProt P10275); experiment: AR antagonism assay (luciferase reporter)
T2 sequence (P10275 1-920): T1 sequence (P10275 1-920 T878A) with A878T

[6] = 6 days incubation, CellTiterGlo, read-out: LNCap (IC50)

Row | SMILES | IC50 [1] [nM] | IC50 ([2]; read-out: LNCap (IC50, nM)) [nM] | IC50 [3] [nM] | IC50 [4] [nM] | IC50 [5] [nM] | IC50 [2, 6] [nM]
1 | CC[C@@]1(O)C(=O)OCc2c1cc1n(c2=O)Cc2cc3c(CN4CCN(C(=O)C5CCN(c6ccc(C(=O)N[C@H]7CC[C@H](Oc8ccc(C#N)c(Cl)c8)CC7)nn6)CC5)CC4)c(OC(=O)N(C(C)C)C(C)C)ccc3nc2-1 [Compound 1, (S)-10-((4-(1-(6-(((1r,4r)-4-(3-Chloro-4-cyanophenoxy)cyclohexyl)carbamoyl)pyridazin-3-yl)piperidine-4-carbonyl)piperazin-1-yl)methyl)-4-ethyl-4-hydroxy-3,14-dioxo-3,4,12,14-tetrahydro-1H-pyrano[3′,4′:6,7]indolizino[1,2-b]quinolin-9-yl Diisopropylcarbamate] | > 1000 | > 1000 | > 1000 | 101 to 1000 | > 1000 | 
2 | CC[C@@]1(O)C(=O)OCc2c1cc1n(c2=O)Cc2cc3c(CN4CCN(CC5CCN(c6ccc(N7C(=S)N(c8ccc(C#N)c(Cl)c8)C(=O)C7(C)C)cc6)CC5)CC4)c(O)ccc3nc2-1 [Compound No. 53, (S)-2-chloro-4-(3-(4-(4-((4-((4-ethyl-4,9-dihydroxy-3,14-dioxo-3,4,12,14-tetrahydro-1H-pyrano[3′,4′:6,7]indolizino[1,2-b]quinolin-10-yl)methyl)piperazin-1-yl)methyl)piperidin-1-yl)phenyl)-4,4-dimethyl-5-oxo-2-thioxoimidazolidin-1-yl)benzonitrile] | 10 to 100 |  | 101 to 1000 | 10 to 100 | 10 to 100 | 10 to 100
3 | CC[C@@]1(O)C(=O)OCc2c1cc1n(c2=O)Cc2c-1nc1cc(F)c(C)c3c1c2[C@@H](NC(=O)CN1CCN(C(=O)CCCCCC2CCN(c4ccc(C(=O)N[C@H]5CC[C@H](N(C)c6ccc(C#N)c(Cl)c6)CC5)nn4)CC2)CC1)CC3 [Compound No. 46] | 101 to 1000 |  | > 1000 | 101 to 1000 | > 1000 | 101 to 1000
